# Source: patent US20140194531A1, “HYDROXYTYROSOL BENEFITS MITOCHONDRIA” (DSM IP Assets B.V., priority 2008, published 2014)
# What was measured:
# [1] = system: PGC-1α; assay: PGC-1α protein level in adipocytes (Western blot); assay type: cell-based, murine; conditions: 3T3-L1 adipocytes, 1.0 μM, maximum, p<0.05 vs. control
# Description: Murine 3T3-L1 pre-adipocytes (American Type Culture Collection) were cultured in Dulbecco's Modified Eagle's Medium (DMEM) supplemented with 10% fetal bovine serum and allowed to reach confluence. Differentiation of pre-adipocytes was initiated with 1 μM insulin, 0.25 μM dexamethasone and 0.5 mM 3-isobutyl-1-methylxanthine in DMEM, supplemented with 10% fetal bovine serum. After 48 h, the culture medium was replaced with DMEM supplemented with 10% fetal bovine serum and 1 μM insulin. The culture medium was changed every other day with DMEM containing 10% fetal bovine serum. […] After treatment, cells were washed twice with ice-cold PBS, lysed in sample buffer (62.5 mM Tris-Cl pH 6.8, 2% SDS, 5 mM DTT) at room temperature and vortexed. Cell lysates were then boiled for 5 minutes and cleared by centrifugation (13,000 rpm, 10 minutes at 4° C.). Protein concentration was determined using the Bio-Rad DC protein assay. The soluble lysates (10 μg per lane) were subjected to 10% SDS-PAGE, proteins were then transferred to nitrocellulose membranes and blocked with 5% non-fat milk/TBST for 1 h at room temperature. […] Western blots were developed using ECL (Roche Manheim, Germany) and quantified by scanning densitometry.
# [2] = system: mitochondrial electron transport complex I; assay: Mitochondrial complex I protein expression in adipocytes (Western blot); assay type: cell-based, murine; conditions: 3T3-L1 adipocytes, 48 hrs
# Description: Murine 3T3-L1 pre-adipocytes (American Type Culture Collection) were cultured in Dulbecco's Modified Eagle's Medium (DMEM) supplemented with 10% fetal bovine serum and allowed to reach confluence. Differentiation of pre-adipocytes was initiated with 1 μM insulin, 0.25 μM dexamethasone and 0.5 mM 3-isobutyl-1-methylxanthine in DMEM, supplemented with 10% fetal bovine serum. After 48 h, the culture medium was replaced with DMEM supplemented with 10% fetal bovine serum and 1 μM insulin. The culture medium was changed every other day with DMEM containing 10% fetal bovine serum. […] After treatment, cells were washed twice with ice-cold PBS, lysed in sample buffer (62.5 mM Tris-Cl pH 6.8, 2% SDS, 5 mM DTT) at room temperature and vortexed. Cell lysates were then boiled for 5 minutes and cleared by centrifugation (13,000 rpm, 10 minutes at 4° C.). Protein concentration was determined using the Bio-Rad DC protein assay. The soluble lysates (10 μg per lane) were subjected to 10% SDS-PAGE, proteins were then transferred to nitrocellulose membranes and blocked with 5% non-fat milk/TBST for 1 h at room temperature. Membranes were incubated with primary antibodies directed against PPAR-y (1:1000), PGC-1α (1:1000), α-tubulin (1:10 000), Complex I (1:2000), Complex II (1:2000), Complex III (1:2000) and Complex V (1:2000) in 5% milk/TBST at 4° C. overnight. After washing membranes with TBST three times, membranes were incubated with horseradish peroxidase-conjugated secondary antibody for 1 h at room temperature. Western blots were developed using ECL (Roche Manheim, Germany) and quantified by scanning densitometry.
# [3] = system: mice (C57BL/6NCrl); assay: Maximal running performance on a treadmill (endurance); assay type: in vivo; conditions: olive extract containing 50% hydroxytyrosol, 50, 150 or 300 mg/kg body weight per day by gavage, 3 weeks
# Excerpt: The purpose of the study was to determine the effect of hydroxytyrosol on maximal running performance on a treadmill.
# In short, forty mice (C57BL/6NCrl; 8 wks old) were purchased from Charles River (Sulzfeld, Germany) and housed individually with free access to water and feed, with an alternating 12-hour light-dark cycle. The animals were fed a standard rodent diet (Ssniff R/M-H, Ext. n° V1536, Ssniff Ltd., Soest, Germany). After 2 weeks of adaptation to the diet the mice were randomized according to body weight into four experimental groups of 10 animals. The four groups were treated orally every morning for 3 weeks with either water (control group) or with an olive extract diluted to 0.2 ml with water and containing 50% hydroxytyrosol at doses of 50, 150, or 300 mg/kg body weight per day. There was no difference in feed consumption over the whole experiment. After 3 weeks of treatment the maximal running distance on a treadmill was measured. Statistical significance of the mean differences between dietary groups was tested by one-way analysis of variance (ANOVA). If significant differences were found, the Dunnett's test for multiple comparison was used to compare each group to the control group. P values less than 0.05 were considered significant.
smiles,measurement,setting,value
"OCCc1ccc(O)c(O)c1 [hydroxytyrosol, 3,4-dihydroxyphenylethanol]","PGC-1α protein expression (PGC-1α:α-tubulin ratio, vs. control)",[1],205±52%
same,mitochondrial electron transport complex I protein (vs. control),"[2]; 0.1 μM, p<0.05",131±16%
same,mitochondrial electron transport complex I protein (vs. control),"[2]; 1.0 μM, p<0.01",163±31%
same,mitochondrial electron transport complex I protein (vs. control),"[2]; 10.0 μM, p<0.05",138±21%
same,increase of endurance,[3],up to 50%
